# Experiment: Fulvestrant aqueous solubility in the presence and absence of cyclodextrins (excess drug, shaken 24 h, filtered, HPLC)
# Type: physicochemical
# Conditions: for True Fulvestrant Concentration: 22° C., 24 h; for Average Concentration / Quantity of Fulvestrant Diluted Run 1 / Quantity of Fulvestrant Diluted Run 2: diluted sample
# Procedure: The HPLC system used for the chromatographic determination of fulvestrant consisted of a Waters 600E quaternary gradient pump, a Waters 717plus WISP auto-sampler and a Waters 2487 Dual A, Absorbance detector. Separation was performed using a Phenomenex Luna C18 column (250×4.6 mm; 5 urn) (Phenomenex, Torrance, Calif.) (supplied by Separations, South Africa) and a mobile phase consisting of 50% MeCN:22.5% ddH2O :27.5% MeOH. The mobile phase was degassed and filtered prior to use. […] Sample run times were 15 minutes. The UV detector wavelength was set to 280 nm.
# 1 mL of each of the following aqueous solutions was prepared containing 0; 25; 50; 75 and 100 mg/mL ACD in ddHiO. Excess fulvestrant was added to each of these solutions and the samples were shaken for 24 hours on an orbital shaker at 200 rpm and at 22° C. room temperature. Excess fulvestrant was present in all samples at all times. After 24-hours, the samples were filtered through 0.45 μm syringe tip filters, diluted according to requirements and assayed by HPLC.
# 1 mL of each of the following aqueous solutions was prepared containing 0; 5; 7.5; 10 and 15 mg/mL BCD in ddH2O. Excess fulvestrant was added to each of these solutions and the samples were shaken for 24 hours on an orbital shaker at 200 rpm and at 22° C. room temperature. Excess fulvestrant was present in all samples at all times. After 24-hours, the samples were filtered through 0.45 μm syringe tip filters, diluted according to requirements and assayed by HPLC.
# 1 mL of each of the following aqueous solutions was prepared containing 0; 50; 100; 150; 200; 250; 300; 350 and 400 mg/mL MBCD in ddH2O. Excess fulvestrant was added to each of these solutions and the samples were shaken for 24 hours on an orbital shaker at 200 rpm and at 22° C. room temperature. Excess fulvestrant was present in all samples at all times. After 24-hours, the samples were filtered through 0.45 μm syringe tip filters, diluted according to requirements and assayed by HPLC.
# 1 mL of each of the following aqueous solutions was prepared containing 0; 50; 100; 150; 200; 250; 300; 350 and 400 mg/mL HPBCD in ddH2O. Excess fulvestrant was added to each of these solutions and the samples were shaken for 24 hours on an orbital shaker at 200 rpm and at 22° C. room temperature. Excess fulvestrant was present in all samples at all times. After 24-hours, the samples were filtered through 0.45 μm syringe tip filters, diluted according to requirements and assayed by HPLC.
# 1 mL of each of the following aqueous solutions was prepared containing 0; 50; 100; 150; 200; 250; 300; 350 and 400 mg/mL SBEBCD in ddH2O. Excess fulvestrant was added to each of these solutions and the samples were shaken for 24 hours on an orbital shaker at 200 rpm and at 22° C. room temperature. Excess fulvestrant was present in all samples at all times. After 24-hours, the samples were filtered through 0.45 μm syringe tip filters, diluted according to requirements and assayed by HPLC.
# 1 mL of each of the following aqueous solutions was prepared containing 0; 50; 100; 150; and 200 mg/mL GCD in ddHO. Excess fulvestrant was added to each of these solutions and the samples were shaken for 24 hours on an orbital shaker at 200 rpm and at 22° C. room temperature. Excess fulvestrant was present in all samples at all times. After 24-hours, the samples were filtered through 0.45 μm syringe tip filters, diluted according to requirements and assayed by HPLC.
# 1 mL of each of the following aqueous solutions was prepared containing 0; 50; 100; 150; 200; 250; 300; 350 and 400 mg/mL HPGCD in ddH2O. Excess fulvestrant was added to each of these solutions and the samples were shaken for 24 hours on an orbital shaker at 200 rpm and at 22° C. room temperature. Excess fulvestrant was present in all samples at all times. After 24-hours, the samples were filtered through 0.45 μm syringe tip filters, diluted according to requirements and assayed by HPLC.
smiles,measurement,setting,value
"C[C@]12CC[C@@H]3c4ccc(O)cc4C[C@@H](CCCCCCCCC[S+]([O-])CCCC(F)(F)C(F)(F)F)[C@H]3[C@@H]1CC[C@@H]2O (stereo partly drawn) [Fulvestrant, 7-alpha-[9-(4,4,5,5,5-pentafluoropentylsulphinyl)nonyl]estra-1,3,5-(10)-triene-3,17-beta-diol]",True Fulvestrant Concentration,0 mg/mL ACD in ddH2O,<0.010 mg/mL
same,Average Concentration,0 mg/mL ACD,<10.00 µg/mL
same,Quantity of Fulvestrant Diluted Run 1,0 mg/mL ACD,<10.000 µg/mL
same,Quantity of Fulvestrant Diluted Run 2,0 mg/mL ACD,<10.010 µg/mL
same,True Fulvestrant Concentration,0 mg/mL BCD in ddH2O,<0.010 mg/mL
same,Average Concentration,0 mg/mL BCD,<10.00 µg/mL
same,Quantity of Fulvestrant Diluted Run 1,0 mg/mL BCD,<10.000 µg/mL
same,Quantity of Fulvestrant Diluted Run 2,0 mg/mL BCD,<10.000 µg/mL
same,True Fulvestrant Concentration,0 mg/mL GCD in ddH2O,<0.010 mg/mL
same,Average Concentration,0 mg/mL GCD,<10.00 µg/mL
same,Quantity of Fulvestrant Diluted Run 1,0 mg/mL GCD,<10.000 µg/mL
same,Quantity of Fulvestrant Diluted Run 2,0 mg/mL GCD,<10.000 µg/mL
same,True Fulvestrant Concentration,0 mg/mL HPBCD in ddH2O,<0.010 mg/mL
same,Average Concentration,0 mg/mL HPBCD,<10.00 µg/mL
same,Quantity of Fulvestrant Diluted Run 1,0 mg/mL HPBCD,<10.00 µg/mL
same,Quantity of Fulvestrant Diluted Run 2,0 mg/mL HPBCD,<10.00 µg/mL
same,True Fulvestrant Concentration,0 mg/mL HPGCD in ddH2O,<0.010 mg/mL
same,Average Concentration,0 mg/mL HPGCD,<10.00 µg/mL
same,Quantity of Fulvestrant Diluted Run 1,0 mg/mL HPGCD,<10.00 µg/mL
same,Quantity of Fulvestrant Diluted Run 2,0 mg/mL HPGCD,<10.00 µg/mL
same,True Fulvestrant Concentration,0 mg/mL MBCD in ddH2O,<0.010 mg/mL
same,Average Concentration,0 mg/mL MBCD,<10.00 µg/mL
same,Quantity of Fulvestrant Diluted Run 1,0 mg/mL MBCD,<10.00 µg/mL
same,Quantity of Fulvestrant Diluted Run 2,0 mg/mL MBCD,<10.00 µg/mL
same,Average Concentration,0 mg/mL SBEBCD,<10.00 µg/mL
same,Quantity of Fulvestrant Diluted Run 1,0 mg/mL SBEBCD,<10.00 µg/mL
same,Quantity of Fulvestrant Diluted Run 2,0 mg/mL SBEBCD,<10.00 µg/mL
same,True Fulvestrant Concentration,5 mg/mL BCD in ddH2O,<0.010 mg/mL
same,Average Concentration,5 mg/mL BCD,<10.00 µg/mL
same,Quantity of Fulvestrant Diluted Run 1,5 mg/mL BCD,<10.000 µg/mL
same,Quantity of Fulvestrant Diluted Run 2,5 mg/mL BCD,<10.000 µg/mL
same,True Fulvestrant Concentration,10 mg/mL BCD in ddH2O,<0.010 mg/mL
same,Average Concentration,10 mg/mL BCD,<10.00 µg/mL
same,Quantity of Fulvestrant Diluted Run 1,10 mg/mL BCD,<10.000 µg/mL
same,Quantity of Fulvestrant Diluted Run 2,10 mg/mL BCD,<10.000 µg/mL
same,True Fulvestrant Concentration,15 mg/mL BCD in ddH2O,0.013 mg/mL
same,Average Concentration,15 mg/mL BCD,13.00 µg/mL
same,Quantity of Fulvestrant Diluted Run 1,15 mg/mL BCD,13.060 µg/mL
same,Quantity of Fulvestrant Diluted Run 2,15 mg/mL BCD,12.940 µg/mL
same,True Fulvestrant Concentration,25 mg/mL ACD in ddH2O,0.033 mg/mL
same,Average Concentration,25 mg/mL ACD,33.30 µg/mL
same,Quantity of Fulvestrant Diluted Run 1,25 mg/mL ACD,33.620 µg/mL
same,Quantity of Fulvestrant Diluted Run 2,25 mg/mL ACD,32.970 µg/mL
same,True Fulvestrant Concentration,50 mg/mL ACD in ddH2O,0.111 mg/mL
same,Average Concentration,50 mg/mL ACD,110.74 µg/mL
same,Quantity of Fulvestrant Diluted Run 1,50 mg/mL ACD,110.600 µg/mL
same,Quantity of Fulvestrant Diluted Run 2,50 mg/mL ACD,110.880 µg/mL
same,True Fulvestrant Concentration,50 mg/mL GCD in ddH2O,0.011 mg/mL
same,Average Concentration,50 mg/mL GCD,10.62 µg/mL
same,Quantity of Fulvestrant Diluted Run 1,50 mg/mL GCD,10.700 µg/mL
same,Quantity of Fulvestrant Diluted Run 2,50 mg/mL GCD,10.530 µg/mL
same,True Fulvestrant Concentration,50 mg/mL HPBCD in ddH2O,0.210 mg/mL
same,Average Concentration,50 mg/mL HPBCD,20.95 µg/mL
same,Quantity of Fulvestrant Diluted Run 1,50 mg/mL HPBCD,21.09 µg/mL
same,Quantity of Fulvestrant Diluted Run 2,50 mg/mL HPBCD,20.81 µg/mL
same,True Fulvestrant Concentration,50 mg/mL HPGCD in ddH2O,0.037 mg/mL
same,Average Concentration,50 mg/mL HPGCD,38.32 µg/mL
same,Quantity of Fulvestrant Diluted Run 1,50 mg/mL HPGCD,38.66 µg/mL
same,Quantity of Fulvestrant Diluted Run 2,50 mg/mL HPGCD,37.97 µg/mL
same,True Fulvestrant Concentration,50 mg/mL MBCD in ddH2O,0.750 mg/mL
same,Average Concentration,50 mg/mL MBCD,74.99 µg/mL
same,Quantity of Fulvestrant Diluted Run 1,50 mg/mL MBCD,74.61 µg/mL
same,Quantity of Fulvestrant Diluted Run 2,50 mg/mL MBCD,75.37 µg/mL
same,True Fulvestrant Concentration,50 mg/mL SBEBCD in ddH2O,0.077 mg/mL
same,Average Concentration,50 mg/mL SBEBCD,77.30 µg/mL
same,Quantity of Fulvestrant Diluted Run 1,50 mg/mL SBEBCD,76.98 µg/mL
same,Quantity of Fulvestrant Diluted Run 2,50 mg/mL SBEBCD,77.61 µg/mL
same,True Fulvestrant Concentration,75 mg/mL ACD in ddH2O,0.310 mg/mL
same,Average Concentration,75 mg/mL ACD,310.32 µg/mL
same,Quantity of Fulvestrant Diluted Run 1,75 mg/mL ACD,310.460 µg/mL
same,Quantity of Fulvestrant Diluted Run 2,75 mg/mL ACD,310.170 µg/mL
same,True Fulvestrant Concentration,100 mg/mL ACD in ddH2O,1.683 mg/mL
same,Average Concentration,100 mg/mL ACD,168.26 µg/mL
same,Quantity of Fulvestrant Diluted Run 1,100 mg/mL ACD,162.660 µg/mL
same,Quantity of Fulvestrant Diluted Run 2,100 mg/mL ACD,173.850 µg/mL
same,True Fulvestrant Concentration,100 mg/mL GCD in ddH2O,<0.010 mg/mL
same,Average Concentration,100 mg/mL GCD,<10.00 µg/mL
same,Quantity of Fulvestrant Diluted Run 1,100 mg/mL GCD,<10.000 µg/mL
same,Quantity of Fulvestrant Diluted Run 2,100 mg/mL GCD,<10.000 µg/mL
same,True Fulvestrant Concentration,100 mg/mL HPBCD in ddH2O,0.483 mg/mL
same,Average Concentration,100 mg/mL HPBCD,48.30 µg/mL
same,Quantity of Fulvestrant Diluted Run 1,100 mg/mL HPBCD,48.32 µg/mL
same,Quantity of Fulvestrant Diluted Run 2,100 mg/mL HPBCD,48.27 µg/mL
same,True Fulvestrant Concentration,100 mg/mL HPGCD in ddH2O,0.107 mg/mL
same,Average Concentration,100 mg/mL HPGCD,116.27 µg/mL
same,Quantity of Fulvestrant Diluted Run 1,100 mg/mL HPGCD,116.80 µg/mL
same,Quantity of Fulvestrant Diluted Run 2,100 mg/mL HPGCD,115.74 µg/mL
same,True Fulvestrant Concentration,100 mg/mL MBCD in ddH2O,3.021 mg/mL
same,Average Concentration,100 mg/mL MBCD,302.06 µg/mL
same,Quantity of Fulvestrant Diluted Run 1,100 mg/mL MBCD,302.12 µg/mL
same,Quantity of Fulvestrant Diluted Run 2,100 mg/mL MBCD,301.99 µg/mL
same,True Fulvestrant Concentration,100 mg/mL SBEBCD in ddH2O,0.167 mg/mL
same,Average Concentration,100 mg/mL SBEBCD,167.10 µg/mL
same,Quantity of Fulvestrant Diluted Run 1,100 mg/mL SBEBCD,167.7 µg/mL
same,Quantity of Fulvestrant Diluted Run 2,100 mg/mL SBEBCD,166.49 µg/mL
same,True Fulvestrant Concentration,150 mg/mL GCD in ddH2O,<0.010 mg/mL
same,Average Concentration,150 mg/mL GCD,<10.00 µg/mL
same,Quantity of Fulvestrant Diluted Run 1,150 mg/mL GCD,<10.000 µg/mL
same,Quantity of Fulvestrant Diluted Run 2,150 mg/mL GCD,<10.000 µg/mL
same,True Fulvestrant Concentration,150 mg/mL HPBCD in ddH2O,0.937 mg/mL
same,Average Concentration,150 mg/mL HPBCD,93.66 µg/mL
same,Quantity of Fulvestrant Diluted Run 1,150 mg/mL HPBCD,93.82 µg/mL
